Where two headings read alike, the source gives them in different places.
Test system: Vcap cells (androgen receptor (+) prostate cancer cells)
Assay: CTG cell proliferation assay (CellTiter-Glo)
Settings: for viability at 0.1 µM / viability at 1 µM / viability at 10 µM: Homo sapiens, VCaP, 120 h; for Cell survival rate: notes of Table 9: 1.0 μM tested compound in combination with 1.0 μM Enzalutamide
[1] = read-out: Survival rate of Vcap cells, Table 5, tested compound alone, 0.1 μM
[2] = read-out: Survival rate of Vcap cells, Table 5, tested compound alone, 1.0 μM
[3] = read-out: Survival rate of Vcap cells, Table 5, tested compound alone, 10 μM
[4] = Table 5, tested compound 0.1 μM in combination with 1 μM ODM-201
[5] = Table 5, tested compound 1.0 μM in combination with 1 μM ODM-201
[6] = Table 5, tested compound 10 μM in combination with 1 μM ODM-201
[7] = Table 5, tested compound alone, 1.0 μM
[8] = read-out: Survival rate of Vcap cells, Table 9, tested compound alone, 0.1 μM
[9] = read-out: Survival rate of Vcap cells, Table 9, tested compound alone, 1.0 μM
[10] = read-out: Survival rate of Vcap cells, Table 9, tested compound alone, 10 μM
[11] = Table 9, tested compound 0.1 μM in combination with 1 μM ARN-509
[12] = Table 9, tested compound 0.1 μM in combination with 1 μM Enzalutamide
[13] = Table 9, tested compound 1.0 μM in combination with 1 μM ARN-509
[14] = Table 9, tested compound 1.0 μM in combination with 1 μM Enzalutamide
[15] = Table 9, tested compound 10 μM in combination with 1 μM ARN-509
[16] = Table 9, tested compound 10 μM in combination with 1 μM Enzalutamide
[17] = read-out: Survival rate of Vcap cells, Table 10, tested compound alone, 0.1 μM
[18] = read-out: Survival rate of Vcap cells, Table 10, tested compound alone, 1.0 μM
[19] = read-out: Survival rate of Vcap cells, Table 10, tested compound alone, 10 μM
[20] = Table 10, tested compound 0.1 μM in combination with 1 μM B001
[21] = Table 10, tested compound 0.1 μM in combination with 1 μM K001
[22] = Table 10, tested compound 1.0 μM in combination with 1 μM B001
[23] = Table 10, tested compound 1.0 μM in combination with 1 μM K001
[24] = Table 10, tested compound 10 μM in combination with 1 μM B001
[25] = Table 10, tested compound 10 μM in combination with 1 μM K001
[26] = read-out: Survival rate of Vcap cells, Table 4, tested compound alone, 0.1 μM
[27] = read-out: Survival rate of Vcap cells, Table 4, tested compound alone, 1 μM
[28] = read-out: Survival rate of Vcap cells, Table 4, tested compound alone, 10 μM
[29] = Table 4, tested compound alone, 1 μM
[30] = read-out: Survival rate of Vcap cells, Table 3, tested compound alone, 0.1 μM
[31] = read-out: Survival rate of Vcap cells, Table 3, tested compound alone, 1.0 μM
[32] = read-out: Survival rate of Vcap cells, Table 3, tested compound alone, 10 μM
[33] = Table 3, tested compound 0.1 μM in combination with 1 μM ARN-509
[34] = Table 3, tested compound 0.1 μM in combination with 1 μM Enzalutamide
[35] = Table 3, tested compound 1.0 μM in combination with 1 μM ARN-509
[36] = Table 3, tested compound 1.0 μM in combination with 1 μM Enzalutamide
[37] = Table 3, tested compound 10 μM in combination with 1 μM ARN-509
[38] = Table 3, tested compound 10 μM in combination with 1 μM Enzalutamide
[39] = Table 3, tested compound alone, 1.0 μM
[40] = Table 4, tested compound 0.1 μM in combination with 1 μM Abiraterone acetate
[41] = Table 4, tested compound 0.1 μM in combination with 1 μM Galeterone
[42] = Table 4, tested compound 1 μM in combination with 1 μM Abiraterone acetate
[43] = Table 4, tested compound 1 μM in combination with 1 μM Galeterone
[44] = Table 4, tested compound 10 μM in combination with 1 μM Abiraterone acetate
[45] = Table 4, tested compound 10 μM in combination with 1 μM Galeterone

Protocol: In vitro test of the inhibition effect of the compound in combination with androgen receptor pathway modulators and the like on the prostate cancer cell proliferation.
The tested compounds were used alone or in combination with other androgen receptor pathway modulators respectively. […] After that, 100 μl of CellTiter-Glo® cell viability assay reagent (Promega, catalogue number G7570) was added to each well and mixed well on a vibrator for 10 minutes to induce cell lysis. The 96-well plate was placed at room temperature for 10 minutes, so as to stabilize its luminescence signal. A white bottom membrane was pasted on the bottom of the plate and the plate was tested using EnSpire.

Nc1cccc2c1C(=O)N(C1CCC(=O)NC1=O)C2=O (stereo not drawn) [F001]
viability at 0.1 µM [1]: 79.7%
viability at 1 µM [2]: 59.9%
viability at 10 µM [3]: 55.7%
Survival rate of Vcap cells [4]: 49.4%
Survival rate of Vcap cells [5]: 40.9%
Survival rate of Vcap cells [6]: 37.3%
Survival rate of Vcap cells [7]: 59.9%

[2H]C1(N2Cc3c(N)cccc3C2=O)CCC(=O)NC1=O (stereo not drawn) [B004]
viability at 0.1 µM [8]: 94.1%
viability at 1 µM [9]: 88.4%
viability at 10 µM [10]: 88%
Survival rate of Vcap cells [11]: 59.1%
Survival rate of Vcap cells [12]: 60.4%
Survival rate of Vcap cells [13]: 51.2%
Survival rate of Vcap cells [14]: 50.8%
Survival rate of Vcap cells [15]: 48.0%
Survival rate of Vcap cells [16]: 51.1%
Cell survival rate: 51.2%

C[C@]12C=CC(=O)C=C1CC[C@@H]1[C@@H]2C(=O)C[C@@]2(C)[C@H]1CC[C@]2(O)C(=O)CO [Prednisone, reference compound]
viability at 0.1 µM [17]: 99.1%
viability at 1 µM [18]: 99.7%
viability at 10 µM [19]: 99.4%
Survival rate of Vcap cells [20]: 87.6%
Survival rate of Vcap cells [21]: 91.5%
Survival rate of Vcap cells [22]: 78.7%
Survival rate of Vcap cells [23]: 74.2%
Survival rate of Vcap cells [24]: 73.8%
Survival rate of Vcap cells [25]: 68.0%

[2H][C@]1(N2Cc3c(N)cccc3C2=O)CCC(=O)NC1=O [B005]
viability at 0.1 µM [8]: 91.1%
viability at 1 µM [9]: 85%
viability at 10 µM [10]: 83.5%
Survival rate of Vcap cells [11]: 53.4%
Survival rate of Vcap cells [12]: 56.5%
Survival rate of Vcap cells [13]: 47.6%
Survival rate of Vcap cells [14]: 48.4%
Survival rate of Vcap cells [15]: 46.2%
Survival rate of Vcap cells [16]: 46.5%
Cell survival rate: 47.6%

O=C1CC[C@H](N2Cc3c(OCc4ccc(CN5CCOCC5)cc4)cccc3C2=O)C(=O)N1 [D108]
viability at 0.1 µM [1]: 73%
viability at 1 µM [2]: 67.3%
viability at 10 µM [3]: 58.5%
Survival rate of Vcap cells [4]: 42.7%
Survival rate of Vcap cells [5]: 40.1%
Survival rate of Vcap cells [6]: 32.8%
Survival rate of Vcap cells [7]: 67.3%

C[C@]12CC[C@H](O)CC1=CC[C@@H]1[C@@H]2CC[C@]2(C)C(c3cccnc3)=CC[C@@H]12 [Abiraterone, reference compound]
viability at 0.1 µM [17]: 98.5%
viability at 1 µM [18]: 92.4%
viability at 10 µM [19]: 81.9%
Survival rate of Vcap cells [20]: 78.9%
Survival rate of Vcap cells [22]: 74.9%
Survival rate of Vcap cells [24]: 66.3%

CC(O)(CS(=O)(=O)c1ccc(F)cc1)C(=O)Nc1ccc(C#N)c(C(F)(F)F)c1 (stereo not drawn) [bicalutamide, reference compound]
viability at 0.1 µM [17]: 99.2%
viability at 1 µM [18]: 94%
viability at 10 µM [19]: 92%
Survival rate of Vcap cells [20]: 77.1%
Survival rate of Vcap cells [21]: 78.7%
Survival rate of Vcap cells [22]: 69.0%
Survival rate of Vcap cells [23]: 64.1%
Survival rate of Vcap cells [24]: 67.1%
Survival rate of Vcap cells [25]: 61.5%

C[C@](O)(COc1ccc(C#N)cc1)C(=O)Nc1ccc(C#N)c(C(F)(F)F)c1 [MK-2866, reference compound]
viability at 0.1 µM [17]: 76.5%
viability at 1 µM [18]: 77.4%
viability at 10 µM [19]: 69.4%
Survival rate of Vcap cells [20]: 64.8%
Survival rate of Vcap cells [22]: 65.6%
Survival rate of Vcap cells [24]: 57.8%

[2H][C@@]1(N2Cc3c(N)cccc3C2=O)CCC(=O)NC1=O [B006]
viability at 0.1 µM [8]: 91.7%
viability at 1 µM [9]: 89.7%
viability at 10 µM [10]: 85.7%
Survival rate of Vcap cells [11]: 63.2%
Survival rate of Vcap cells [12]: 61.2%
Survival rate of Vcap cells [13]: 51.7%
Survival rate of Vcap cells [14]: 50.5%
Survival rate of Vcap cells [15]: 45.0%
Survival rate of Vcap cells [16]: 48.3%
Cell survival rate: 51.7%

CC(=O)O[C@H]1CC[C@@]2(C)C(=CC[C@@H]3[C@@H]2CC[C@]2(C)C(c4cccnc4)=CC[C@@H]32)C1 [Abiraterone acetate, reference compound]
viability at 0.1 µM [26]: 106%
viability at 1 µM [27]: 91.7%
viability at 10 µM [28]: 31.4%
viability at 0.1 µM [17]: 96.1%
viability at 1 µM [18]: 97%
viability at 10 µM [19]: 60.5%
Survival rate of Vcap cells [29]: 91.7%
Survival rate of Vcap cells [20]: 79.8%
Survival rate of Vcap cells [22]: 70.5%
Survival rate of Vcap cells [24]: 66.9%

CC(O)c1cc(C(=O)N[C@@H](C)Cn2ccc(-c3ccc(C#N)c(Cl)c3)n2)[nH]n1 (stereo partly drawn) [ODM-201, reference compound]
viability at 0.1 µM [1]: 90.7%
viability at 1 µM [2]: 69%
viability at 10 µM [3]: 75.4%
Survival rate of Vcap cells [7]: 69.0%

O=C1CCC(N2Cc3c(OCc4ccc(CN5CCOCC5)cc4)cccc3C2=O)C(=O)N1 (stereo not drawn) [D107]
viability at 0.1 µM [30]: 85.3%
viability at 1 µM [31]: 77.2%
viability at 10 µM [32]: 69.3%
viability at 0.1 µM [26]: 85.3%
viability at 1 µM [27]: 77.2%
viability at 10 µM [28]: 69.3%
Survival rate of Vcap cells [33]: 37.0%
Survival rate of Vcap cells [34]: 37.3%
Survival rate of Vcap cells [35]: 36.3%
Survival rate of Vcap cells [36]: 35.0%
Survival rate of Vcap cells [37]: 34.2%
Survival rate of Vcap cells [38]: 32.3%
Survival rate of Vcap cells [39]: 77.2%
Survival rate of Vcap cells [40]: 66.0%
Survival rate of Vcap cells [41]: 43.9%
Survival rate of Vcap cells [42]: 61.7%
Survival rate of Vcap cells [43]: 42.4%
Survival rate of Vcap cells [44]: 59.6%
Survival rate of Vcap cells [45]: 40.0%
Survival rate of Vcap cells [29]: 77.2%

Nc1cccc2c1CN([C@H]1CCC(=O)NC1=O)C2=O [B002]
viability at 0.1 µM [8]: 85.6%
viability at 1 µM [9]: 79.8%
viability at 10 µM [10]: 75.9%
Survival rate of Vcap cells [11]: 52.5%
Survival rate of Vcap cells [12]: 53.9%
Survival rate of Vcap cells [13]: 44.7%
Survival rate of Vcap cells [14]: 44.7%
Survival rate of Vcap cells [15]: 44.3%
Survival rate of Vcap cells [16]: 43.1%
Cell survival rate: 44.7%

C[C@]12CC[C@H](O)CC1=CC[C@@H]1[C@@H]2CC[C@]2(C)C(n3cnc4ccccc43)=CC[C@@H]12 [Galeterone, reference compound]
Survival rate of Vcap cells (Table 4, tested compound alone, 0.1 μM): 95.9%
Survival rate of Vcap cells [29]: 62.8%
Survival rate of Vcap cells (Table 4, tested compound alone, 10 μM): 19.3%

Nc1cccc2c1CN([C@@H]1CCC(=O)NC1=O)C2=O [B003]
viability at 0.1 µM [8]: 83.7%
viability at 1 µM [9]: 81.3%
viability at 10 µM [10]: 80.4%
Survival rate of Vcap cells [11]: 54.0%
Survival rate of Vcap cells [13]: 46.5%
Survival rate of Vcap cells [14]: 45.4%
Survival rate of Vcap cells [15]: 42.4%
Survival rate of Vcap cells [16]: 44.2%

Cc1nc2cccc(N)c2c(=O)n1C1CCC(=O)NC1=O (stereo not drawn) [K001]
viability at 0.1 µM [30]: 85.1%
viability at 1 µM [31]: 65.8%
viability at 10 µM [32]: 61.4%
viability at 0.1 µM [26]: 85.1%
viability at 1 µM [27]: 65.8%
viability at 10 µM [28]: 61.4%
viability at 0.1 µM [1]: 79.2%
viability at 1 µM [2]: 59.7%
viability at 10 µM [3]: 51%
viability at 0.1 µM [17]: 91.2%
viability at 1 µM [18]: 73.8%
viability at 10 µM [19]: 66.1%
Survival rate of Vcap cells [33]: 43.6%
Survival rate of Vcap cells [34]: 42.4%
Survival rate of Vcap cells [35]: 36.0%
Survival rate of Vcap cells [36]: 36.4%
Survival rate of Vcap cells [37]: 33.5%
Survival rate of Vcap cells [38]: 35.1%
Survival rate of Vcap cells [39]: 65.8%
Survival rate of Vcap cells [40]: 70.4%
Survival rate of Vcap cells [41]: 49.1%
Survival rate of Vcap cells [42]: 53.1%
Survival rate of Vcap cells [43]: 41.3%
Survival rate of Vcap cells [44]: 48.1%
Survival rate of Vcap cells [45]: 39.4%
Survival rate of Vcap cells [29]: 65.8%
Survival rate of Vcap cells [4]: 53.5%
Survival rate of Vcap cells [5]: 40.4%
Survival rate of Vcap cells [6]: 35.2%
Survival rate of Vcap cells [7]: 59.7%

From patent US20240173312A1, “Pharmaceutical Composition Comprising a Benzoheterocyclic Compound and Androgen Receptor Pathway Modulator and Application Thereof” (KANGPU BIOPHARMACEUTICALS, LTD., priority 2015, published 2024)
